Like-named read-outs stand apart in the source and are kept apart here.
Assays:
[1] = system: DU-145 prostate cancer cells; experiment: MTT cytotoxicity assay, DU-145; type: cell-based, human; conditions: Homo sapiens, DU-145, 72 h, 72 h incubation, mean ± SEM of three experiments, read-out: Cytotoxicity (GI50) against DU-145
Method: (§1) The cytotoxicity of the synthesized series of 4-substituted 5, 13–17, 22, 23, 2-substituted 25–30 and 2,4-disubstituted 1-hydroxy-9,10-anthraquinones 33–38, 40–45 was evaluated against a panel of seven different human cancer cell lines (glioblastoma cancer cells, human prostate cancer cells, T-cellular human leucosis, breast cancer cells) and also a normal cell line of hTERT-immortalized lung fibroblasts, using conventional MTT assay. Doxorubicin (DOX) is clinically used to treat cancer as drug in world and have a very wide antitumor spectrum. That we use them as positive control compounds. The cytotoxicity was determined by measuring the concentration inhibiting human tumor cell viability by 50% (GI50).
(§2) The human cancer cells of the glioblastoma (U-87MG, SNB-19, T98G), prostate cancer cell line (LNCAP, DU-145), the cells of T-cellular human leucosis (MT-4) and human breast cancer cells (MDA-MB-231) were used in this study. The cells were cultured in the RPMI-1640 medium that contained 10% embryonic calf serum, L-glutamine (2 mmol/L), gentamicin ([…]) and lincomycin (30 mkg/mL) in a CO2 incubator at 37 °C. The tested compounds were dissolved in DMSO and added to the cellular culture at the required concentrations. Three wells were used for each concentration. The cells which were incubated without the compounds were used as a control. Cells were placed on 96-well microliter plates and cultivated at 37 °C in 5% CO2/95% air for 72 h. The cell viability was assessed through an MTT [3-(4,5-dimethylthiazol-2-yl)-[…]-2H-tetrazolium bromide] conversion assay. A total of 1% MTT was added to each well. Four hours later, DMSO was added and mixed for 15 min. Optical density (D) of the samples was measured on a BioRad 680 multi-well spectrophotometer (USA) at the wavelength of 450 nm. The 50% cytotoxic dose GI50) of each compound (i.e., the compound concentration that causes the death of 50% of cells in a culture, or decreases the optical density twice as compared to the control wells) was calculated from the data obtained. Statistical processing of the results was performed using the Microsoft Excel-2007, […] 6.0 and GraphPad Prism 5.0 programs. The results are given as an average value ± a deviation from the average (mean ± standard error of the mean (SEM)). Reliability of differences (p) was estimated using the Student t test. The differences with p < 0.05 were considered as reliable. The experimental results are given as the data average values obtained from three independently conducted experiments.

[2] = system: MDA-MB-231 breast cancer cells; experiment: MTT cytotoxicity assay, MDA-MB-231; type: cell-based; conditions: Homo sapiens, 72 h incubation, mean ± SEM of three experiments, read-out: Cytotoxicity (GI50) against MDA-MB-231
Method: as §1, §2

[3] = system: U-87MG glioblastoma cells; experiment: MTT cytotoxicity assay, U-87MG; type: cell-based; conditions: Homo sapiens, 72 h incubation, mean ± SEM of three experiments, read-out: Cytotoxicity (GI50) against U-87MG
Method: as §1, §2

[4] = MTT cytotoxicity assay, normal hTERT-immortalized lung fibroblasts; type: cell-based; conditions: human, hTERT-immortalized lung fibroblasts (normal cell line), 72 h incubation, mean ± SEM of three experiments, read-out: Cytotoxicity (GI50) against hTERT Lung Fibroblasts
Method: as §1, §2

T98G glioblastoma cells = experiment: MTT cytotoxicity assay, T98G; type: cell-based; conditions: Homo sapiens, 72 h incubation, mean ± SEM of three experiments, read-out: Cytotoxicity (GI50) against T98G
Method: as §1, §2

[5] = system: MT-4 cells of T-cellular human leucosis; experiment: MTT cytotoxicity assay, MT-4; type: cell-based; conditions: MT4, 72 h incubation, mean ± SEM of three experiments, read-out: Cytotoxicity (GI50) against MT-4
Method: as §1, §2

pUC19 DNA plasmid = experiment: Gel retardation (electrophoretic mobility shift) assay; type: binding; conditions: 0.5 µg pUC19 plasmid, 0.025 µM test compound, room temperature 1 h, agarose gel 60 V 4 h
Method: The interaction of compounds 13, 15, 16, 23, 25 27, 28, 35, 40 and 44 with DNA was experimentally confirmed by study of the electrophoretic mobility. For this the gel retardation assay was performed. Doxorubicin in different concentration was used as a positive control. In order to avoid destruction of the possible complex of DNA with compounds, the electrophoresis was performed at low voltage. The results are presented at Figure 3.
To study the interaction between test compounds and DNA the electrophoretic mobility shift assay was performed. 0.5 µg of pUC19 plasmid was incubated with 0.025 µM of test compounds at room temperature for 1 h. After that the electrophoresis was performed in agarose gel (1/2%) in TBE buffer (60 V, 4 h). For visualization the gel was staining with ethidium bromide and analyzed with Bio-Rad gel documentation system.

[6] = system: LNCAP prostate cancer cells; experiment: MTT cytotoxicity assay, LNCAP; type: cell-based, human; conditions: 72 h incubation, mean ± SEM of three experiments, read-out: Cytotoxicity (GI50) against LNCAP
Method: as §1, §2

[7] = system: SNB-19 glioblastoma cells; experiment: MTT cytotoxicity assay, SNB-19; type: cell-based; conditions: Homo sapiens, 72 h incubation, mean ± SEM of three experiments, read-out: Cytotoxicity (GI50) against SNB-19
Method: as §1, §2

SNB-19 cells [8] = experiment: DNA synthesis investigation (BrdU/PI flow cytometry), SNB-19; type: cell-based, human; conditions: SNB-19, treated at GI50 concentration, 24 h, BrdU 30 min
SNB-19 cells [9] = experiment: Cell cycle analysis by flow cytometry (Hoechst 33342), SNB-19; type: cell-based, human; conditions: SNB-19, treated at GI50 concentration, 24 h
Method: Due to the fact that the implementation of the antitumor potential of the currently existing antitumor agents is carried out by acting on various biological targets, at the next stage we performed the cell cycle analysis and DNA synthesis. Cell cycle analysis of 1-hydroxy-4-phenyl-9,10-anthraquinone 13, 1-hydroxy-4-(2,3-dimethoxyphenyl)-9,10- anthraquinone 16, 1-hydroxy-4-(furan-3-yl)-9,10-anthraquinone 23 and 1-hydroxy- 2-(2,3-dimethoxyphenyl)-9,10-anthraquinone 28 against SNB-19 cells for 24 h produced interesting results. After examining the data for compounds 13 and 16 (Table 3, Figure 4C,D), good number of cells are distributed in S phase, i.e., initiated DNA replication mechanism and also in G0/G1 phase, i.e., initial phase of cell cycle. G1 and G2 are the growth phases in cell cycle analysis, whereas S phase is a synthetic phase wherein DNA replication and DNA synthesis take place. The 2-aryl substituted compound 28 initiated the G0/G1 phase in analogy with doxorubicin and mitomycin. […] Further, compounds play a vital role in controlling the regulation of Sub-G1 and G2/M phases. Some difference in the mechanism of operation of 4-aryl substituted 13,16 and 2-aryl substituted 9,10-anthraquinones 28 has been observed during the progression of cell cycle like: S phase was highly disturbed by 13; G0/G1 phase was highly disturbed by 28. […] This observation can be explained by the influence on the cell repair systems that respond to the intercalation of compounds in DNA. […] Further, mitoxantrone promotes the arrest of S phase of cell cycle.
For cell cycle analysis cells were seeded in 6-well plates (30,000 per plate) and incubate for adhesion for 24 h. […] Cells were washed with PBS twice, harvested, pelleted and resuspended in 0.5 mL of PBS. For staining the Hoechst 33342 Ready Flow Reagent (Invitrogen) was used according to the instruction. CytoFLEX flow cytometer (Beckman Coulter) was used for analysis. The results are presented as a percentage of cell population standing in different stages of the cell cycle.

melting point	SMILES	GI50 [1]	GI50 [2]	GI50 [3]	GI50 at 72 h [4]	GI50 (T98G glioblastoma cells)	GI50 [5]	Retardation of plasmid DNA (electrophoretic mobility) (pUC19 DNA plasmid)	GI50 ([6]; Homo sapiens, LNCaP, 72 h)	GI50 [7]	Population (% Cell Distribution) DNA Synthesis (SNB-19 cells [8])	Population (% Cell Distribution) G0/G1 (SNB-19 cells [9])	Population (% Cell Distribution) G2/M (SNB-19 cells [9])	Population (% Cell Distribution) S (SNB-19 cells [9])	Population (% Cell Distribution) Sub-G1 (SNB-19 cells [9])	Population (% Cell Distribution) Super-G2 (SNB-19 cells [9])	GI50 [6]
226.4 °C (dec.)	COc1ccc(-c2cc(-c3ccc(OC)cc3)c3c(c2O)C(=O)c2ccccc2C3=O)cc1 [Compound 35, 1-Hydroxy-2,4-di-(4-methoxyphenyl)anthracene-9,10-dione]	5.9 ± 0.52 µM	7.6 ± 0.64 µM	25.7 ± 3.14 µM	17.7 ± 0.96 µM	9.8 ± 0.56 µM	20.2 ± 1.04 µM	cause a retardation of plasmid DNA	26.7 ± 1.86 µM	10.1 ± 1.08 µM	–	–	–	–	–	–	–
217.4 °C (dec.)	COc1cc(-c2cc(Br)c3c(c2O)C(=O)c2ccccc2C3=O)cc(OC)c1OC [Compound 42, 4-Bromo-1-hydroxy-2-(3,4,5-trimethoxyphenyl)anthracene-9,10-dione]	23.9 ± 4.28 µM	21.1 ± 3.28 µM	> 100 µM	18.2 ± 2.19 µM	11.5 ± 1.34 µM	> 100 µM	–	71.8 ± 9.76 µM	31.6 ± 2.16 µM	–	–	–	–	–	–	–
60.4 °C (dec.)	COc1cc(-c2cc(-c3ccccc3)c3c(c2O)C(=O)c2ccccc2C3=O)cc(OC)c1OC [Compound 43, 1-Hydroxy-4-phenyl-2-(3,4,5-trimethoxyphenyl)anthracene-9,10-dione]	18.6 ± 2.45 µM	17.1 ± 1.55 µM	> 100 µM	34.1 ± 0.92 µM	16.1 ± 0.78 µM	> 100 µM	–	> 100 µM	19.2 ± 2.52 µM	–	–	–	–	–	–	–
226.8 °C (dec.)	COc1cc(-c2cc(-c3ccc(Cl)cc3C(F)(F)F)c3c(c2O)C(=O)c2ccccc2C3=O)cc(OC)c1OC [Compound 45, 4-(4-Chloro-2-(trifluoromethyl)phenyl)-1-hydroxy-2-(3,4,5-trimethoxyphenyl)-anthracene-9,10-dione]	22.6 ± 0.91 µM	14.2 ± 1.42 µM	18.2 ± 1.06 µM	20.5 ± 2.68 µM	28.3 ± 3.25 µM	31.5 ± 1.52 µM	–	6.2 to 7.2 µM	11.2 ± 1.49 µM	–	–	–	–	–	–	7.2 ± 0.74 µM

The next lines start with the compound.

SMILES	melting point	GI50 [1]	GI50 [2]	GI50 [3]	GI50 at 72 h [4]	GI50 (T98G glioblastoma cells)	GI50 [5]	Retardation of plasmid DNA (electrophoretic mobility) (pUC19 DNA plasmid)	GI50 ([6]; Homo sapiens, LNCaP, 72 h)	GI50 [7]	Population (% Cell Distribution) DNA Synthesis (SNB-19 cells [8])	Population (% Cell Distribution) G0/G1 (SNB-19 cells [9])	Population (% Cell Distribution) G2/M (SNB-19 cells [9])	Population (% Cell Distribution) S (SNB-19 cells [9])	Population (% Cell Distribution) Sub-G1 (SNB-19 cells [9])	Population (% Cell Distribution) Super-G2 (SNB-19 cells [9])	GI50 [6]
COc1ccc(-c2ccc(O)c3c2C(=O)c2ccccc2C3=O)cc1 [Compound 15, 1-Hydroxy-4-(4-methoxyphenyl)anthracene-9,10-dione]	209.2 to 209.4 °C	6.5 ± 0.48 µM	6.8 ± 0.58 µM	45.4 ± 1.87 µM	42 ± 2.04 µM	11.6 ± 0.78 µM	32.1 ± 1.54 µM	cause a retardation of plasmid DNA	28.5 ± 0.96 µM	9.6 ± 1.04 µM	–	–	–	–	–	–	–
O=C1c2ccccc2C(=O)c2c(-c3ccoc3)ccc(O)c21 [Compound 23, 1-(Furan-3-yl)-4-hydroxyanthracene-9,10-dione]	190 °C (dec.)	15.4 ± 0.96 µM	18.2 ± 1.27 µM	58.7 ± 2.48 µM	69.5 ± 1.52 µM	34.8 ± 1.06 µM	56.1 ± 1.96 µM	cause a retardation of plasmid DNA	22.2 ± 2.12 µM	37 ± 1.41 µM	22.71%	34.6%	17.3%	32.5%	3.1%	11.8%	–
COc1ccc(-c2ccc3c(c2O)C(=O)c2ccccc2C3=O)cc1 [Compound 27, 1-Hydroxy-2-(4-methoxyphenyl)anthracene-9,10-dione]	209.5 °C (dec.)	19.1 ± 0.78 µM	23.2 ± 2.34 µM	35.8 ± 2.17 µM	46.5 ± 1.21 µM	21.6 ± 0.38 µM	38.6 ± 1.36 µM	cause a retardation of plasmid DNA	> 100 µM	8.5 ± 0.32 µM	–	–	–	–	–	–	–
COc1cccc(-c2ccc3c(c2O)C(=O)c2ccccc2C3=O)c1OC [Compound 28, 2-(2,3-Dimethoxyphenyl)-1-hydroxyanthracene-9,10-dione]	176.3 °C (dec.)	> 100 µM	42.4 ± 3.32 µM	> 100 µM	51.3 ± 3.18 µM	32.6 ± 1.68 µM	18.2 ± 0.86 µM	–	23.1 ± 1.24 µM	5.77 ± 0.23 µM	16.83%	54.5%	13.7%	22.4%	3.6%	5.8%	–
COc1ccc(-c2cc(Br)c(O)c3c2C(=O)c2ccccc2C3=O)cc1 [Compound 41, 2-Bromo-1-hydroxy-4-(4-methoxyphenyl)anthracene-9,10-dione]	241.3 °C (dec.)	> 100 µM	15.8 ± 0.82 µM	44.5 ± 1.56 µM	17.2 ± 0.62 µM	29.7 ± 2.05 µM	44.1 ± 3.23 µM	–	41.1 ± 5.15 µM	14.1 ± 3.15 µM	–	–	–	–	–	–	–

Reference: article PMC7321108, “1-Hydroxyanthraquinones Containing Aryl Substituents as Potent and Selective Anticancer Agents” (Molecules, 2020)
